Where a name gives a salt, the structure may show the parent alone.
Legend:
[1] = system: Staphylococcus aureus (ATCC25923); test: MIC, broth microdilution (CLSI), Staphylococcus aureus ATCC25923; details: Staphylococcus aureus, ATCC25923, read-out: S. aureus ATCC 25923 MIC
[2] = system: E. coli RNase P RNA, M1 RNA; test: Inhibition of bacterial RNase P activity, IC50 determination (cleavage of pATSerUG by M1 RNA); assay type: biochemical; details: NI: No inhibition
[3] = system: Escherichia coli (ATCC25922); test: MIC, broth microdilution (CLSI), Escherichia coli; details: Escherichia coli, ATCC25922, read-out: E. coli ATCC 25922 MIC, Table XIII

| SMILES | MIC [1] [µg/mL] | IC50 [2] [µM] | MIC [3] [µg/mL] | IC50 ([2]; hydrochloride salt) [µM] |
| --- | --- | --- | --- | --- |
| CC(C)c1cccc(C(CC(=O)N[C@H]2CC[C@H](N)CC2)c2cn(CC3CCCCC3)c3ccccc23)c1.Cl (stereo partly drawn) [Compound 198, N-((1R,4R)-4-aminocyclohexyl)-3-(1-(cyclohexylmethyl)-1H-indol-3-yl)-3-(3-isopropylphenyl) propanamide hydrochloride salt] | 17 | 12.7 | > 512 | – |
| O=C(CC(c1cn(CC2CCCCC2)c2ccccc12)C1CCNCC1)NCCC1CCNCC1 (stereo not drawn) [Compound 145, 3-(1-(cyclohexylmethyl)-1H-indol-3-yl)-3-(piperidin-4-yl)-N-(2-(piperidin-4-yl)ethyl)propanamide hydrochloride salt] | 512 | 1480 | > 512 | – |
| Cc1ccc(C(CC(=O)NC2CCC(N)CC2)c2cn(CC3CCCCC3)c3ccccc23)cc1.Cl [Compound 140, N-((1S,4S)-4-aminocyclohexyl)-3-(1-(cyclohexylmethyl)-1H-indol-3-yl)-3-(p-tolyl)propanamide hydrochloride salt] | 8 | 34 | 64 | – |
| Cc1ccccc1-c1ccc2c(c1)c(CC(=O)NC1CCC(N)CC1)cn2CC1CCCCC1.Cl [Compound 235, N-((1S,4S)-4-aminocyclohexyl)-2-(1-(cyclohexylmethyl)-5-(o-tolyl)-1H-indol-3-yl)acetamide hydrochloride salt] | 8 | 12 | 126 | – |
| Cl.O=C(CCc1cn(CC2CCCCC2)c2ccccc12)NC1CCNCC1 [Compound 115, 3-(1-(cyclohexylmethyl)-1H-indol-3-yl)-N-(piperidin-4-yl)propanamide hydrochloride salt] | 128 | 145 | 128 | – |
| Cc1cccc(C(CC(=O)NC2CCNCC2)c2cn(CC3CCC(F)(F)CC3)c3ccc(Br)cc23)c1.Cl (stereo not drawn) [Compound 287, 3-(5-bromo-1-((4,4-difluorocyclohexyl)methyl)-1H-indol-3-yl)-N-(piperidin-4-yl)-3-(m-tolyl)propanamide hydrochloride salt] | 10 | 15 | 78 | – |
| Cl.N[C@H]1CC[C@H](NC(=O)CC(c2cc(Cl)cc(Cl)c2)c2cn(CC3CCCCC3)c3ccccc23)CC1 (stereo partly drawn) [Compound 136, N-((1r,4r)-4-aminocyclohexyl)-3-(1-(cyclohexylmethyl)-1H-indol-3-yl)-3-(3,5-dichlorophenyl) propanamide hydrochloride salt] | 64 | 9 | > 512 | – |
| COc1cc(C)cc(C(CC(=O)N[C@H]2CC[C@H](N)CC2)c2cn(CC3CCCCC3)c3ccccc23)c1.Cl (stereo partly drawn) [Compound 133, N-((1R,4R)-4-aminocyclohexyl)-3-(1-(cyclohexylmethyl)-1H-indol-3-yl)-3-(3-methoxy-5-methylphenyl) propanamide hydrochloride salt] | > 512 | 76 | > 512 | – |
| Cc1cccc(C(CCNC2CCC(N)CC2)c2cn(CC3CCCCC3)c3ccc(Br)cc23)c1 [Compound 169, (1S,4S)-N1-(3-(5-bromo-1-(cyclohexylmethyl)-1H-indol-3-yl)-3-(m-tolyl)propyl)cyclohexane-1,4-diamine hydrochloride salt] | 2 | 21 | 5 | – |
| Cc1cccc(C(CC(=O)NCCC2CCNCC2)c2cn(CCC3CCCCC3)c3ccccc23)c1.Cl (stereo not drawn) [Compound 110, 3-(1-(2-cyclohexylethyl)-1H-indol-3-yl)-N-(2-(piperidin-4-yl)ethyl)-3-(m-tolyl)propanamide hydrochloride salt] | 4 | 5.6 | 64 | – |
| Cc1cccc(C(CC(=O)NC2CCC(N)CC2)c2cn(CC3CCCCC3)c3ccc(-c4ccccc4C)cc23)c1.Cl [Compound 221, N-((1S,4S)-4-aminocyclohexyl)-3-(1 - (cyclohexylmethyl)-5-(o-tolyl)-1H-indol-3-yl)-3-(m-tolyl)propanamide hydrochloride salt] | 38 | 3.4 | > 512 | – |
| Cc1cccc(C(CC(=O)NC2CCC(N)CC2)c2cn(CC3CCNCC3)c3ccccc23)c1 [Compound 159, N-((1S,4S)-4-aminocyclohexyl)-3-(1-(piperidin-4-ylmethyl)-1H-indol-3-yl)-3-(m-tolyl)propanamide hydrochloride salt] | 279 | 210 | > 512 | – |
| Cc1cccc(C(CC(=O)NC2CCNCC2)c2cn(Cc3ccccc3)c3ccccc23)c1.Cl (stereo not drawn) [Compound 80, 3-(1-benzyl-1H-indol-3-yl)-N-(piperidin-4-yl)-3-(m-tolyl)propanamide hydrochloride salt] | 32 | 41 | 64 | – |
| NC1CCC(NCCc2cn(CC3CCCCC3)c3ccc(-c4ccccc4OC(F)(F)F)cc23)CC1 [Compound 241, (1S,4S)-N1-(2-(1-(cyclohexylmethyl)-5-(2-(trifluoromethoxy)phenyl)-1H-indol-3-yl)ethyl)cyclohexane-1,4-diamine hydrochloride salt] | 2 | 25 | 5 | – |
| Cc1cccc(C(CC(=O)N[C@H]2CC[C@@H](N)CC2)c2cn(Cc3ccccc3)c3ncccc23)c1.Cl (stereo partly drawn) [Compound 41, N-((1s,4s)-4-aminocyclohexyl)-3-(1-benzyl-1H-pyrrolo[2,3-b]pyridin-3-yl)-3-(m-tolyl)propanamide hydrochloride salt] | 258 | 980 | > 512 | – |
| Cc1cccc(-c2ccc3c(c2)c(CCCN[C@H]2CC[C@H](N)CC2)cn3CC2CCCCC2)c1 [Compound 207, (1R,4R)-N1-(3-(1-(cyclohexylmethyl)-5-(m-tolyl)-1H-indol-3-yl)propyl)cyclohexane-1,4-diamine hydrochloride salt] | 4 | 17 | 4 | – |
| Cc1cccc(C(CC(=O)N[C@H]2CC[C@H](N(C)C)CC2)c2cn(CC3CCCCC3)c3ccccc23)c1.Cl (stereo partly drawn) [Compound 146, 3-(1-(cyclohexylmethyl)-1H-indol-3-yl)-N-((1R,4R)-4-(dimethylamino)cyclohexyl)-3-(m-tolyl)propanamide hydrochloride salt] | 8 | 52 | 256 | – |
| Cc1cccc(C(CC(=O)N(C)C2CCNCC2)c2cn(CC3CCCCC3)c3ccccc23)c1.Cl (stereo not drawn) [Compound 279, 3-(1-(cyclohexylmethyl)-1H-indol-3-yl)-N-methyl-N-(piperidin-4-yl)-3-(m-tolyl)propanamide hydrochloride salt] | 8 | 34 | 65 | – |
| Cc1cccc(C(CC(=O)NC2CCC(N)CC2)c2cn(CC3CCCCC3)c3cc(Br)ccc23)c1 [Compound 222, N-((1S,4S)-4-aminocyclohexyl)-3-(6-bromo-1-(cyclohexylmethyl)-1H-indol-3-yl)-3-(m-tolyl)propanamide hydrochloride salt] | 5 | – | 5 | 5.7 |
| Cc1cccc(C(CC(=O)NCC2CNCCO2)c2cn(CC3CCCCC3)c3ccccc23)c1.Cl (stereo not drawn) [Compound 280, 3-(1-(cyclohexylmethyl)-1H-indol-3-yl)-N-(morpholin-2-ylmethyl)-3-(m-tolyl)propanamide hydrochloride salt] | 16 | 103 | 131 | – |

Reference: patent US20210246115A1 (Bioimics AB, priority 2017, published 2021)
